Numbered stars: 1 amine (or outer) side, 2 acyl side, 3 side chain; on linkers, the order of the positions; unused ones are H or OH. Bridge positions count the residues as written; N and C are the ends. Square brackets hold non-standard residues; d marks the D form. Side chains are listed from the residue outwards. Peptide text beside a SMILES is read from it. * marks the point of attachment. NH(1-deoxy-D-glucityl) = OC[C@@H](O)[C@@H](O)[C@H](O)[C@@H](O)CN*; Trp(1-Me,7-Cl) = Cn1cc(C[C@H](N)C(=O)O)c2cccc(Cl)c21; Ala(2-NH2-4-pyridyl) = Nc1cc(C[C@H](N)C(=O)O)ccn1; dPhe(3-CONH2) = NC(=O)c1cccc(C[C@@H](N)C(=O)O)c1; Piperazinyl(4-CH2COOH) = O=C(O)CN1CCN(*)CC1; Trp(1-Me) = Cn1cc(C[C@H](N)C(=O)O)c2ccccc21; NMe3Pal = CN[C@@H](Cc1cccnc1)C(=O)O; NMeF = CN[C@@H](Cc1ccccc1)C(=O)O; hArg = N=C(N)NCCCC[C@H](N)C(=O)O; hCit = NC(=O)NCCCC[C@H](N)C(=O)O; Gly(cBu) = N[C@H](C(=O)O)C1CCC1; NMeE = CN[C@@H](CCC(=O)O)C(=O)O; Aad = N[C@@H](CCCC(=O)O)C(=O)O; NMeN = CN[C@@H](CC(N)=O)C(=O)O; Cba = N[C@@H](CC1CCC1)C(=O)O; NMeA = CN[C@@H](C)C(=O)O; CO = O=C([*:1])[*:2]; βAla = NCCC(=O)O

One may read the Kd as the equilibrium constant for the complex coming apart.

The test has as its target T1, Recombinant Human EphA2 Fc Protein (Homo sapiens, UniProt P29317).
T1 construct: purchased Elabscience
The test can be described thus: SPR interaction analysis (Biacore T200), kinetics of peptides against EphA2. Type of test: binding. The conditions noted are these: Recombinant Human EphA2 Fc Protein captured by Human Antibody Capture kit; single-cycle kinetics; 25° C.; HBS-P+ buffer with 1% DMSO. Summed up: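 On a Biacore T200 at 25° C, Fc-tagged human EphA2 was captured via anti-human antibody; peptides ran as five serial dilutions in HBS-P+ pH 7.4 with 1% DMSO by single-cycle kinetics. Baseline-subtracted data fitted for ka and kd, from which KD was derived.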
For `C[C@@H](O)[C@@H]1NC(=O)[C@H](Cc2cn(C)c3ccccc23)NC(=O)[C@H](CCCCNC(=O)N2CCN(CC(=O)O)CC2)NC(=O)[C@H](Cc2cn(C)c3c(Cl)cccc23)NC(=O)[C@H](Cc2ccccc2)N(C)C(=O)[C@H](CCCC(N)=O)NC(=O)[C@H](C2CCC2)NC(=O)[C@H](CC(N)=O)NC(=O)[C@H](Cc2ccccc2)N(C)C(=O)[C@@H](Cc2cccc(C(N)=O)c2)NC(=O)CSC[C@@H](C(N)=O)NC(=O)[C@H](CCCC(N)=O)NC1=O` [PDC_EphA2-00019432, df3CON-MeF-N-Cbg-Hgn-MeF-W1Me7Cl-KCOpipzaa-W1Me-T-Hgn-C-NH2] ({CH2CO}-[dPhe(3-CONH2)][NMeF]N[Gly(cBu)][Aad](NH2)[NMeF][Trp(1-Me,7-Cl)]K([CO-Piperazinyl(4-CH2COOH)])[Trp(1-Me)]T[Aad](NH2)C-NH2; thioether N-12), the Kd was under 1 nM. `CC(=O)NCCCC[C@@H](NC(=O)[C@@H]1CSCC(=O)N[C@H](C)C(=O)N(C)[C@@H](Cc2cccnc2)C(=O)N[C@@H](CC(N)=O)C(=O)N[C@@H](CC(C)C)C(=O)N[C@@H](CCCCNC(=O)N2CCN(CC(=O)O)CC2)C(=O)N(C)[C@@H](Cc2ccccc2)C(=O)N[C@@H](Cc2cn(C)c3ccccc23)C(=O)N[C@@H](CCCCNC(=O)N2CCN(CC(=O)O)CC2)C(=O)N[C@@H](Cc2cn(C)c3ccccc23)C(=O)N[C@@H]([C@@H](C)O)C(=O)N[C@@H](CCC(=O)O)C(=O)N1)C(N)=O` [PDC_EphA2-00008090, da-Me3Py-N-L-KCOpipzaa-MeF-W1Me-KCOpipzaa-W1Me-T-E-C-dkAc-NH2] ({CH2CO}-[dA][NMe3Pal]NLK([CO-Piperazinyl(4-CH2COOH)])[NMeF][Trp(1-Me)]K([CO-Piperazinyl(4-CH2COOH)])[Trp(1-Me)]TEC[dK](Ac)-NH2; thioether N-12): the Kd is under 1 nM. Under `C[C@H]1NC(=O)CSC[C@@H](C(=O)NCC(N)=O)NC(=O)[C@H](Cc2cn(C)c3ccccc23)NC(=O)[C@H](CCCCNC(N)=O)NC(=O)[C@H](Cc2cn(C)c3ccccc23)NC(=O)[C@H](CC(N)=O)NC(=O)[C@H]([C@@H](C)O)NC(=O)[C@H](CC2CCC2)NC(=O)[C@H](CC(N)=O)NC(=O)[C@H](Cc2ccccc2)N(C)C1=O` [PDC_EphA2-00021407-L092, da-MeF-N-Cba-T-N-W1Me-Hcit-W1Me-C-G-NH2] ({CH2CO}-[dA][NMeF]N[Cba]TN[Trp(1-Me)][hCit][Trp(1-Me)]CG-NH2; thioether N-10) stands 100 to 400 nM; under `CC(=O)NCCCC[C@@H](NC(=O)CCNC(=O)[C@@H]1CSCC(=O)N[C@H](CCCCNC(=O)N2CCN(CC(=O)O)CC2)C(=O)N(C)[C@@H](Cc2cccnc2)C(=O)N[C@@H](CC(N)=O)C(=O)N[C@@H](CC(C)C)C(=O)N[C@@H](CCCCNC(=O)N2CCN(CC(=O)O)CC2)C(=O)N(C)[C@@H](Cc2ccccc2)C(=O)N[C@@H](Cc2cn(C)c3ccccc23)C(=O)N[C@@H](C(C)C)C(=O)N[C@@H](Cc2cn(C)c3ccccc23)C(=O)N[C@@H]([C@@H](C)O)C(=O)N[C@@H](CCC(=O)O)C(=O)N1)C(N)=O` [PDC_EphA2-00008085, dkCOpipzaa-Me3Py-N-L-KCOpipzaa-MeF-W1Me-V-W1Me-T-E-C-bA-dkAc-NH2] ({CH2CO}-[dK]([CO-Piperazinyl(4-CH2COOH)])[NMe3Pal]NLK([CO-Piperazinyl(4-CH2COOH)])[NMeF][Trp(1-Me)]V[Trp(1-Me)]TEC[βAla][dK](Ac)-NH2; thioether N-12), 1 to 10 nM; under `C[C@H]1SCC(=O)N[C@H](Cc2cccc(C(N)=O)c2)C(=O)N(C)[C@@H](Cc2cccnc2)C(=O)N[C@@H](CC(N)=O)C(=O)N[C@@H](C2CCC2)C(=O)N[C@@H](CCCC(N)=O)C(=O)N(C)[C@@H](CCC(=O)O)C(=O)N[C@@H](Cc2cn(C)c3c(Cl)cccc23)C(=O)N[C@@H](CCCCNC(=O)N2CCN(CC(=O)O)CC2)C(=O)N[C@@H](Cc2cn(C)c3ccccc23)C(=O)N[C@@H]1C(N)=O` [PDC_EphA2-00026611, df3CON-Me3Py-N-Cbg-Hgn-MeE-W1Me7Cl-KCOpipzaa-W1Me-C3RMe-NH2], under 1 nM. Under `C[C@@H](O)[C@@H]1NC(=O)[C@H](Cc2cn(C)c3ccccc23)NC(=O)[C@H](CCCCNC(=O)N2CCN(CC(=O)O)CC2)NC(=O)[C@H](Cc2cn(C)c3c(Cl)cccc23)NC(=O)[C@H](CCC(=O)O)N(C)C(=O)[C@H](CCCC(N)=O)NC(=O)[C@H](C2CCC2)NC(=O)[C@H](CC(N)=O)NC(=O)[C@H](Cc2cccnc2)N(C)C(=O)[C@@H](Cc2cccc(C(N)=O)c2)NC(=O)CSC[C@@H](C(N)=O)NC(=O)[C@H](CCCC(N)=O)NC1=O` [PDC_EphA2-00019440, df3CON-Me3Py-N-Cbg-Hgn-MeE-W1Me7Cl-KCOpipzaa-W1Me-T-Hgn-C-NH2] ({CH2CO}-[dPhe(3-CONH2)][NMe3Pal]N[Gly(cBu)][Aad](NH2)[NMeE][Trp(1-Me,7-Cl)]K([CO-Piperazinyl(4-CH2COOH)])[Trp(1-Me)]T[Aad](NH2)C-NH2; thioether N-12) stands under 1 nM; under `C[C@@H](O)[C@@H]1NC(=O)[C@H](Cc2cn(C)c3ccccc23)NC(=O)[C@H](CCCCNC(=O)N2CCN(CC(=O)O)CC2)NC(=O)[C@H](Cc2cn(C)c3c(Cl)cccc23)NC(=O)[C@H](CC(N)=O)N(C)C(=O)[C@H](CCCC(N)=O)NC(=O)[C@H](C2CCC2)NC(=O)[C@H](CC(N)=O)NC(=O)[C@H](Cc2cccnc2)N(C)C(=O)[C@@H](Cc2cccc(C(N)=O)c2)NC(=O)CSC[C@@H](C(N)=O)NC(=O)[C@H](CCCCNC(=N)N)NC1=O` [PDC_EphA2-00019430, df3CON-Me3Py-N-Cbg-Hgn-MeN-W1Me7Cl-KCOpipzaa-W1Me-T-Har-C-NH2] ({CH2CO}-[dPhe(3-CONH2)][NMe3Pal]N[Gly(cBu)][Aad](NH2)[NMeN][Trp(1-Me,7-Cl)]K([CO-Piperazinyl(4-CH2COOH)])[Trp(1-Me)]T[hArg]C-NH2; thioether N-12), under 1 nM; under `C[C@@H](O)[C@@H]1NC(=O)[C@H](Cc2cn(C)c3ccccc23)NC(=O)[C@H](CCCCNC(N)=O)NC(=O)[C@H](Cc2cn(C)c3c(Cl)cccc23)NC(=O)[C@H](CC(N)=O)N(C)C(=O)[C@H](CCCC(N)=O)NC(=O)[C@H](C2CCC2)NC(=O)[C@H](CC(N)=O)NC(=O)[C@H](Cc2cccnc2)N(C)C(=O)[C@@H](Cc2cccc(C(N)=O)c2)NC(=O)CSC[C@@H](C(N)=O)NC(=O)[C@H](CCCCNC(=N)N)NC1=O` [PDC_EphA2-00019429, df3CON-Me3Py-N-Cbg-Hgn-MeN-W1Me7Cl-Hcit-W1Me-T-Har-C-NH2] ({CH2CO}-[dPhe(3-CONH2)][NMe3Pal]N[Gly(cBu)][Aad](NH2)[NMeN][Trp(1-Me,7-Cl)][hCit][Trp(1-Me)]T[hArg]C-NH2; thioether N-12), under 1 nM. Under `CC(C)C[C@@H]1NC(=O)[C@H](CC(N)=O)NC(=O)[C@H](Cc2ccccc2)N(C)C(=O)[C@@H](C)NC(=O)CSC[C@@H](C(N)=O)NC(=O)[C@H](CCC(=O)O)NC(=O)[C@H]([C@@H](C)O)NC(=O)[C@H](Cc2cn(C)c3ccccc23)NC(=O)[C@H](C(C)C)NC(=O)[C@H](Cc2cn(C)c3ccccc23)NC(=O)[C@H](Cc2ccccc2)N(C)C(=O)[C@H](CCCC(=O)O)NC1=O` [PDC_EphA2-00001417, da-MeF-N-L-Hgl-MeF-W1Me-V-W1Me-T-E-C-NH2] ({CH2CO}-[dA][NMeF]NL[Aad][NMeF][Trp(1-Me)]V[Trp(1-Me)]TEC-NH2; thioether N-12) stands 1 to 10 nM; under `CC(C)[C@@H]1NC(=O)[C@H](Cc2cn(C)c3ccccc23)NC(=O)[C@H](Cc2cccnc2)N(C)C(=O)[C@H](CCCC(N)=O)NC(=O)[C@H](C2CCC2)NC(=O)[C@H](CC(N)=O)NC(=O)[C@H](Cc2cccnc2)N(C)C(=O)[C@@H](C)NC(=O)CSC[C@@H](C(N)=O)NC(=O)[C@H](CCCC(N)=O)NC(=O)[C@H]([C@@H](C)O)NC(=O)[C@H](Cc2cn(C)c3ccccc23)NC1=O` [PDC_EphA2-00010012, da-Me3Py-N-Cbg-Hgn-Me3Py-W1Me-V-W1Me-T-Hgn-C-NH2] ({CH2CO}-[dA][NMe3Pal]N[Gly(cBu)][Aad](NH2)[NMe3Pal][Trp(1-Me)]V[Trp(1-Me)]T[Aad](NH2)C-NH2; thioether N-12), under 1 nM. `CC(=O)NCCCC[C@@H](NC(=O)CCNC(=O)[C@@H]1CSCC(=O)N[C@H](C)C(=O)N(C)[C@@H](Cc2cccnc2)C(=O)N[C@@H](CC(N)=O)C(=O)N[C@@H](CC(C)C)C(=O)N[C@@H](CCCC(N)=O)C(=O)N(C)[C@@H](Cc2ccccc2)C(=O)N[C@@H](Cc2cn(C)c3ccccc23)C(=O)N[C@@H](CCCCNC(=O)N2CCN(CC(=O)O)CC2)C(=O)N[C@@H](Cc2cn(C)c3ccccc23)C(=O)N[C@@H]([C@@H](C)O)C(=O)N[C@@H](CCCC(N)=O)C(=O)N1)C(N)=O` [PDC_EphA2-00008093, da-Me3Py-N-L-Hgn-MeF-W1Me-KCOpipzaa-W1Me-T-Hgn-C-bA-dkAc-NH2] ({CH2CO}-[dA][NMe3Pal]NL[Aad](NH2)[NMeF][Trp(1-Me)]K([CO-Piperazinyl(4-CH2COOH)])[Trp(1-Me)]T[Aad](NH2)C[βAla][dK](Ac)-NH2; thioether N-12): the Kd was under 1 nM. With `CC(C)C[C@@H]1NC(=O)[C@H](Cc2ccnc(N)c2)NC(=O)[C@H](Cc2ccccc2)NC(=O)CSC[C@@H](C(N)=O)NC(=O)[C@H](Cc2cn(C)c3ccccc23)NC(=O)[C@H](Cc2ccccc2)N(C)C(=O)[C@H](Cc2cn(C)c3ccccc23)NC(=O)[C@H](C)N(C)C1=O` [PDC_EphA2-00026479, F-4Py2NH2-L-MeA-W1Me-MeF-W1Me-C-NH2] ({CH2CO}-F[Ala(2-NH2-4-pyridyl)]L[NMeA][Trp(1-Me)][NMeF][Trp(1-Me)]C-NH2; thioether N-8) the figure was 100 to 400 nM; with `CC(C)C[C@@H]1NC(=O)[C@H](CC(N)=O)NC(=O)[C@H](Cc2cccnc2)N(C)C(=O)[C@@H](Cc2cccc(C(N)=O)c2)NC(=O)CSC[C@@H](C(N)=O)NC(=O)[C@H](CC(N)=O)NC(=O)[C@H]([C@@H](C)O)NC(=O)[C@H](Cc2cn(C)c3ccccc23)NC(=O)[C@H](CCC(=O)NC[C@H](O)[C@@H](O)[C@H](O)[C@H](O)CO)NC(=O)[C@H](Cc2cn(C)c3c(Cl)cccc23)NC(=O)[C@H](CC(N)=O)N(C)C(=O)[C@H](CC(N)=O)NC1=O` [PDC_EphA2-00026425, df3CON-Me3Py-N-L-N-MeN-W1Me7Cl-Qglucamine-W1Me-T-N-C-NH2] ({CH2CO}-[dPhe(3-CONH2)][NMe3Pal]NLN[NMeN][Trp(1-Me,7-Cl)]E(NH(1-deoxy-D-glucityl))[Trp(1-Me)]TNC-NH2; thioether N-12), under 1 nM.

The record behind these values is patent US20260098061A1, “EPHA2-BINDING PENDING PEPTIDE AND COMPOSITION COMPRISING SAME” (PeptiDream Inc., priority 2022, published 2026).
